Assay results published in PubChem BioAssay AID489020 (Sanford-Burnham Center for Chemical Genomics, 2010).
Active and inactive are the calls of the source.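 The calls were made as follows: active = mean IC50, the dose halving TNF-driven NF-kB light signal, at or below a set limit; inactive = the rest.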

test system: HEK-293T NF-kB-Luc, TNFa-induced, luminescence, 14 h; assay: TNFa-driven NF-kB luciferase inhibition, HEK-293T – cell-based, HEK-293T NF-kB-Luc, luminescence, hits from both screens, counter-screen for BCR/TCR NF-kB inhibitor project, dose response (AID 489020);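 also: TNF-alpha stimulus at 0.1 ng/mL added with the seeded cells; selectivity counterscreen for hits from B- and T-cell receptor NF-kB screens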

| Structure (SMILES) | IC50 |
| --- | --- |
| COc1ccc(C(=O)CN2C(=O)c3ccccc3S2(=O)=O)cc1 | 790 nM |
| CC(C)(C)c1ccc(C(=O)N2CCCCCC2=O)cc1 | 1780 nM |
| CC(Nc1ncnc2sccc12)c1ccccc1 (stereo not drawn) | 600 nM |
| COc1cc(NC(=O)COc2cc(O)c3c(c2)OC(C)(C)CC3=O)cc(OC)c1OC | 380 nM |
| CC(C)(O)c1[nH]c2ccc(C#N)cc2c1C(C)(C)O | 65800 nM (inactive) |
| CC(=O)O[C@H]1[C@H]2O[C@]23[C@@H]2CC[C@]4(O)C[C@@H](O)CC[C@]4(C)C2CC[C@]3(C)[C@H]1c1ccc(=O)oc1 (stereo partly drawn) | < 160 nM |
| CCOc1ccc(-c2cc(CCCC(=O)Nc3cccc(OC)c3)no2)cc1 | 14000 nM |
| O=C(COC(=O)c1ccc[nH]c1=O)Nc1ccc(N2CCCCC2)cc1 | 1200 nM |
| C[n+]1c(-c2ccccc2)c2cc(N)ccc2c2ccc(N)cc21 | 8250 nM |
| Cc1ccc(C(=O)CN2C(=O)c3ccccc3S2(=O)=O)cc1 | 1890 nM |
| CCCCCCn1ccc(=N)cc1 | 13100 nM |
| CCc1cc2c(Sc3nc4ccccc4s3)ncnc2s1 | 21300 nM (inactive) |
| C#CC(=O)N(c1ccc(OC)cc1OC)C(C(=O)NC1CCCC1)c1cccs1 (stereo not drawn) | 4970 nM |
| CC(=O)OC[C@]12CCC(C)=C[C@H]1O[C@@H]1[C@H](O)[C@@H](OC(C)=O)[C@@]2(C)[C@]12CO2 | < 160 nM |
| Cc1cc(C(=O)COC(=O)c2ccccc2O)c(C)n1CC1CCCO1 (stereo not drawn) | 380 nM |
| O=C(CSc1nnnn1C1CC2CCC1C2)Nc1ccnc2ccccc12 (stereo not drawn) | < 160 nM |
| O=C(NCCc1ccccc1F)c1ccc2c(c1)OCCO2 | 1420 nM |
| Cn1nc(CC(=O)Nc2ccc3c(c2)CCC3)c2ccccc2c1=O | 220 nM |
| CC1CCN(c2nc3ccc(C(=O)O)cc3s2)CC1 | 4090 nM |
| COc1ccccc1C(=O)Nc1nc2ccccc2[nH]1 | 800 nM |
| Cc1sc2ncnc(N3CCN(CCOc4ccc(Cl)cc4)CC3)c2c1C | < 160 nM |
| Cc1ccnc(NC(=O)CCCOc2cc(=O)n(C)c3ccccc23)c1 | 5930 nM |
| CCOc1ccc(/C=C2\SC(=S)N(CCC(=O)O)C2=O)cc1 | 34200 nM (inactive) |
| COC(=O)Cc1ccc(NC(=O)c2ccc(C(C)(C)C)cc2)cc1 | 440 nM |
| O=C(Nc1nc(-c2ccc(F)c(F)c2)cs1)c1ccc(OCC2CCCO2)cc1 (stereo not drawn) | 1560 nM |
| COc1ccc(C(=O)Nc2nc3ccccc3s2)c(OC)c1 | 220 nM |
| CCC(C)(C)c1ccc(OCCCC[n+]2ccc(C)cc2)c(C(C)(C)CC)c1 | 8160 nM |

| Structure (SMILES) | IC50 |
| --- | --- |
| Cc1cc(NNC(=O)Nc2cccc(Cl)c2)nc2c1c(C)nn2C | 470 nM |
| CCCCC[n+]1cccc2c3ccccc3ccc21 | 2130 nM |
| O=C(Nc1ccc(Cl)cc1)Nc1cccc(C(=O)O)c1 | 10600 nM |
| Cn1nc(CC(=O)Nc2ccc3c(c2)OCCO3)c2ccccc2c1=O | 600 nM |
| C=C1C(=O)O[C@@H]2C[C@@H](C)[C@@H]3C=CC(=O)[C@@]3(C)[C@@H](OC(C)=O)[C@H]12 | > 80000 nM (inactive) |
| COc1cc(SC)ccc1C(=O)Nc1nc2ccccc2[nH]1 | 200 nM |
| Cn1nccc1C(=O)NC1CCCc2c1cnn2-c1ccccc1F (stereo not drawn) | < 160 nM |
| COc1ccc(CCNc2c(C)c(C)nc3ncnn23)cc1 | 440 nM |
| O=C(/C=C/c1ccccc1)Nc1cccc(C(=O)O)c1 | 2590 nM |
| O=C(Nc1cccc(C(=O)O)c1)Nc1ccc2c(c1)OCO2 | 2170 nM |
| O=C(Nc1ccc([N+](=O)[O-])cc1)C(=O)Nc1cccc(C(=O)O)c1 | 4300 nM |
| COc1ccc(C[C@H]2NC[C@H](O)[C@H]2OC(C)=O)cc1 | < 160 nM |
| COc1cc(CSc2nnnn2-c2ccc(C)cc2)cc(OC)c1OC | 470 nM |
| CN(C)c1cc[n+](CC(=O)c2ccc(-c3ccccc3)cc2)cc1 | 3960 nM |
| C=C1C(=O)O[C@@H]2C[C@@H](C)[C@@H]3C=CC(=O)[C@@]3(C)[C@@H](O)[C@H]12 | > 80000 nM (inactive) |
| COc1ccc(-c2cc3nc(C)n(N)c(=O)c3s2)cc1 | 870 nM |
| CCN1/C(=C\c2ccc3ccccc3[n+]2CC)Sc2cc(C)ccc21 | 630 nM |
| O=C(CCl)N=c1sccn1Cc1ccccc1Cl | 10100 nM |
| CN=c1scc(-c2ccccc2F)n1/N=C/c1ccc[nH]1 | 1210 nM |
| CCCCCCCCCCOC(=O)Cn1c(COc2ccccc2OC)[n+](C)c2ccccc21 | 3080 nM |
| CCOc1cc(S(=O)(=O)NCc2ccncc2)ccc1Cl | < 160 nM |
| COc1ccc(CN(C)c2ccc(S(=O)(=O)N3CCN(C)CC3)cc2[N+](=O)[O-])cc1OC | < 160 nM |
| OCCCNc1cc(-c2ccnc(Nc3cccc(Cl)c3)n2)ccn1 | 380 nM |
| COc1cc([N+](=O)[O-])cc(/C=N/NC(=O)c2ccc(NC(=O)c3ccc(C)cc3)cc2)c1O | 22500 nM (inactive) |
| COCCn1c(C)cc(C2=NNC(=NC3CC3)SC2)c1C | 330 nM |
| CCCCCCCCn1ccc(=N)cc1 | 10800 nM |
